Test results reported in paper PMC11350787, “Antimicrobial Properties and Cytotoxicity of LL-37-Derived Synthetic Peptides to Treat Orthopedic Infections” (Antibiotics, 2024).
Peptide text beside a SMILES is read from it.

Key:
S. aureus ATCC 43300 = experiment: microbe, parasite or virus in culture
Description: (§1) A total of 18 bacterial strains relevant to orthopedic infections were used for microbiological tests, including 8 ATCC (American Type Culture Collection, ATCC, Manassas, VA, USA) and 10 clinical isolates (CI) from the Laboratory of Clinical Chemistry and Microbiology, IRCCS Ospedale Galeazzi–Sant’Ambrogio of Milan (Italy) strain collection. The ATCC strains were used for the first screening (MIC/MBC) of all the AMPs produced, while the clinical isolates were used for further MIC/MBC assays on selected AMPs. Among CI, S. epidermidis GOI1153754-03-14 has been already characterized and used in previous studies. All the strains were stocked at −80°C and working stocks were stored at −20 °C. At the occurrence, the bacteria were resuscitated in Brain Hearth Infusion (BHI, Millipore, Milan, Italy) broth at 37 °C for 18 h from the working stocks.
(§2) To determine the minimum inhibitory concentration (MIC) and the minimum bactericidal concentration (MBC), ISO20776-1 and Clinical and Laboratory Standards Institute guidelines were followed. A commercial synthetic LL-37 (Aurogene, Rome, Italy) was used as the control in the MIC and MBC assays. A stock solution of each AMP was prepared at 600 µg/mL to achieve a final concentration of 300 µg/mL. […] The MIC was determined according to the aforementioned standard guidelines. The MBC was determined by plating 2 µL of culture from each well of the MIC plates on a Tryptic Soy Agar (TSA, Millipore, Milan, Italy) plate and incubated for 24 h at 37 °C. The concentration at which there was no growth was recorded as MBC. Each experiment was carried out in triplicate. Representative MIC and MBC values for vancomycin and gentamicin were assessed to offer a benchmark comparison for the AMPs. Quality control was conducted with Staphylococcus aureus ATCC 29,213 and vancomycin according to EUCAST guidelines.

S. aureus ATCC 25923 = experiment: microbe, parasite or virus in culture
Description: as §1, §2

P. aeruginosa ATCC 27853 = experiment: microbe, parasite or virus in culture
Description: as §1, §2

E. coli ATCC 25922 = experiment: microbe, parasite or virus in culture
Description: as §1, §2

[1] = test system: S. epidermidis GOI1153754-03-14 (CI); experiment: microbe, parasite or virus in culture
Description: as §1, §2

S. aureus ATCC 49230 = experiment: microbe, parasite or virus in culture
Description: as §1, §2

[2] = test system: S. epidermidis ATCC 35984; experiment: microbe, parasite or virus in culture
Description: as §1, §2

[3] = test system: S. epidermidis ATCC 14990; experiment: microbe, parasite or virus in culture
Description: as §1, §2

E. coli Eco75 (CI) = conditions: E. coli Eco75 clinical isolate; triplicate
Description: as §1, §2

P. aeruginosa Pae61 (CI) = conditions: P. aeruginosa Pae61 clinical isolate; triplicate
Description: as §1, §2

P. aeruginosa Pae82 (CI) = conditions: P. aeruginosa Pae82 clinical isolate; triplicate
Description: as §1, §2

S. aureus Sau89 (CI) = conditions: S. aureus Sau89 clinical isolate; triplicate
Description: as §1, §2

S. aureus Sau39 (CI) = conditions: S. aureus Sau39 clinical isolate; triplicate
Description: as §1, §2

P. aeruginosa Pae2 (CI) = conditions: P. aeruginosa Pae2 clinical isolate; triplicate
Description: as §1, §2

S. aureus Sau221 (CI) = conditions: S. aureus Sau221 clinical isolate; triplicate
Description: as §1, §2

E. coli Eco53 (CI) = conditions: E. coli Eco53 clinical isolate; triplicate
Description: as §1, §2

E. coli Eco61 (CI) = conditions: E. coli Eco61 clinical isolate; triplicate
Description: as §1, §2

CNC(C)C1CCC(N)C(OC2C(N)CC(N)C(OC3OCC(C)(O)C(NC)C3O)C2O)O1 (stereo not shown) [Gen, gentamicin]
R: Susceptibility category by MIC (EUCAST clinical breakpoints tables, v. 14) ([1]; S. epidermidis GOI1153754-03-14)
0.6 µg/mL: MIC (S. aureus ATCC 43300; Staphylococcus aureus, ATCC43300, read-out: Minimum Inhibitory Concentration (MIC)) | MIC (S. aureus ATCC 25923; Staphylococcus aureus, ATCC25923, read-out: Minimum Inhibitory Concentration (MIC)) | MIC (P. aeruginosa ATCC 27853; Pseudomonas aeruginosa, ATCC27853, read-out: Minimum Inhibitory Concentration (MIC)) | MIC (E. coli ATCC 25922; Escherichia coli, ATCC25922, read-out: Minimum Inhibitory Concentration (MIC))
S: Susceptibility category by MIC (EUCAST clinical breakpoints tables, version 14) (S. aureus ATCC 43300; S. aureus 43,300 as printed in text) | Susceptibility category by MIC (EUCAST clinical breakpoints tables, v. 14) (S. aureus ATCC 25923; S. aureus 25923) | Susceptibility category by MIC (EUCAST clinical breakpoints tables, v. 14) (P. aeruginosa ATCC 27853; P. aeruginosa 27853) | Susceptibility category by MIC (EUCAST clinical breakpoints tables, v. 14) (E. coli ATCC 25922; E. coli 25922)
2.5 µg/mL: MBC (S. aureus ATCC 43300; Staphylococcus aureus, ATCC43300, 24 h, read-out: Minimum Bactericidal Concentration (MBC)) | MBC (S. aureus ATCC 25923; Staphylococcus aureus, ATCC25923, 24 h, read-out: Minimum Bactericidal Concentration (MBC)) | MBC (P. aeruginosa ATCC 27853; Pseudomonas aeruginosa, ATCC27853, 24 h, read-out: Minimum Bactericidal Concentration (MBC)) | MBC (E. coli ATCC 25922; Escherichia coli, ATCC25922, 24 h, read-out: Minimum Bactericidal Concentration (MBC))
> 20 µg/mL: MBC ([1]; Staphylococcus epidermidis, read-out: Minimum Bactericidal Concentration (MBC)) | MIC ([1]; Staphylococcus epidermidis, read-out: Minimum Inhibitory Concentration (MIC))

CC[C@H](C)[C@H](NC(=O)[C@H](CCCCN)NC(=O)[C@H](CCC(=O)O)NC(=O)[C@H](CCCCN)NC(=O)[C@@H](N)CO)C(=O)NCC(=O)N[C@@H](CCCCN)C(=O)N[C@@H](CCC(=O)O)C(=O)N[C@@H](Cc1ccccc1)C(=O)N[C@@H](CCCCN)C(=O)N[C@@H](CCCNC(=N)N)C(=O)N[C@H](C(=O)N[C@H](C(=O)N[C@@H](CCC(N)=O)C(=O)N[C@@H](CCCNC(=N)N)C(=O)N[C@H](C(=O)N[C@@H](CCCCN)C(=O)N[C@@H](CC(=O)O)C(=O)N[C@@H](Cc1ccccc1)C(=O)N[C@@H](CC(C)C)C(=O)N[C@@H](CCCNC(=N)N)C(=O)N[C@@H](CC(N)=O)C(=O)N[C@@H](CC(C)C)C(=O)N[C@H](C(N)=O)C(C)C)[C@@H](C)CC)C(C)C)[C@@H](C)CC [SK-24] (H-SKEKIGKEFKRIVQRIKDFLRNLV-NH2)
75.00 µg/mL: Minimum Inhibitory Concentration (MIC) (S. aureus ATCC 49230; ATCC 49230, 18 h) | Minimum Inhibitory Concentration (MIC) (E. coli ATCC 25922; ATCC 25922, 18 h) | Minimum Bactericidal Concentration (MBC) (E. coli ATCC 25922; ATCC 25922, 24 h)
18.75 µg/mL: Minimum Inhibitory Concentration (MIC) ([3]; ATCC 14990, 18 h)
150.00 µg/mL: Minimum Inhibitory Concentration (MIC) (S. aureus ATCC 43300; ATCC 43300, 18 h) | Minimum Inhibitory Concentration (MIC) (S. aureus ATCC 25923; ATCC 25923, 18 h) | Minimum Inhibitory Concentration (MIC) (P. aeruginosa ATCC 27853; ATCC 27853, 18 h) | Minimum Bactericidal Concentration (MBC) (P. aeruginosa ATCC 27853; ATCC 27853, 24 h) | Minimum Bactericidal Concentration (MBC) ([3]; ATCC 14990, 24 h)
37.50 µg/mL: Minimum Inhibitory Concentration (MIC) ([2]; ATCC 35984, 18 h)
>300.00 µg/mL: Minimum Bactericidal Concentration (MBC) (S. aureus ATCC 43300; ATCC 43300, 24 h) | Minimum Bactericidal Concentration (MBC) (S. aureus ATCC 49230; ATCC 49230, 24 h) | Minimum Bactericidal Concentration (MBC) (S. aureus ATCC 25923; ATCC 25923, 24 h)
300.00 µg/mL: Minimum Bactericidal Concentration (MBC) ([2]; ATCC 35984, 24 h)

CC[C@H](C)[C@H](NC(=O)[C@H](CCCCN)NC(=O)[C@H](CCC(=O)O)NC(=O)[C@H](CCCCN)NC(=O)[C@H](CO)NC(=O)[C@H](CCCCN)NC(=O)[C@H](CCCNC(=N)N)NC(=O)[C@H](Cc1ccccc1)NC(=O)[C@H](Cc1ccccc1)NC(=O)[C@H](CC(=O)O)NC(=O)CNC(=O)[C@H](CC(C)C)NC(=O)[C@@H](N)CC(C)C)C(=O)NCC(=O)N[C@@H](CCCCN)C(=O)N[C@@H](CCC(=O)O)C(=O)N[C@@H](Cc1ccccc1)C(=O)N[C@@H](CCCCN)C(=O)N[C@@H](CCCNC(=N)N)C(=O)N[C@H](C(=O)N[C@H](C(=O)N[C@@H](CCC(N)=O)C(=O)N[C@@H](CCCNC(=N)N)C(=O)N[C@H](C(=O)N[C@@H](CCCCN)C(=O)N[C@@H](CC(=O)O)C(=O)N[C@@H](Cc1ccccc1)C(=O)N[C@@H](CC(C)C)C(=O)N[C@@H](CCCNC(=N)N)C(=O)N[C@@H](CC(N)=O)C(=O)N[C@@H](CC(C)C)C(=O)N[C@H](C(=O)N1CCC[C@H]1C(=O)N[C@@H](CCCNC(=N)N)C(=O)N[C@H](C(=O)N[C@@H](CCC(=O)O)C(=O)N[C@@H](CO)C(=O)O)[C@@H](C)O)C(C)C)[C@@H](C)CC)C(C)C)[C@@H](C)CC [cLL-37, reference compound]
9.38 µg/mL: Minimum Inhibitory Concentration (MIC) ([2]; S. epidermidis 35984, ISO20776-1/CLSI, triplicate)
300.00 µg/mL: Minimum Bactericidal Concentration (MBC) (E. coli Eco75 (CI)) | Minimum Bactericidal Concentration (MBC) (E. coli Eco53 (CI))
75.00 µg/mL: Minimum Bactericidal Concentration (MBC) (P. aeruginosa Pae82 (CI)) | Minimum Bactericidal Concentration (MBC) (P. aeruginosa Pae2 (CI)) | Minimum Inhibitory Concentration (MIC) (P. aeruginosa Pae2 (CI)) | Minimum Bactericidal Concentration (MBC) (E. coli Eco61 (CI)) | Minimum Inhibitory Concentration (MIC) (S. aureus ATCC 43300; S. aureus 43300, ISO20776-1/CLSI, triplicate) | Minimum Inhibitory Concentration (MIC) (S. aureus ATCC 49230; S. aureus 49230, ISO20776-1/CLSI, triplicate) | Minimum Bactericidal Concentration (MBC) (P. aeruginosa ATCC 27853; P. aeruginosa 27853, plated on TSA, 24 h 37 °C, triplicate) | Minimum Bactericidal Concentration (MBC) ([3]; S. epidermidis 14990, 2 µL from MIC wells plated on TSA, 24 h 37 °C, triplicate) | Minimum Inhibitory Concentration (MIC) ([3]; S. epidermidis 14990, ISO20776-1/CLSI, triplicate) | Minimum Bactericidal Concentration (MBC) (E. coli ATCC 25922; E. coli 25922, plated on TSA, 24 h 37 °C, triplicate)
150.00 µg/mL: Minimum Bactericidal Concentration (MBC) (P. aeruginosa Pae61 (CI)) | Minimum Inhibitory Concentration (MIC) (S. aureus Sau39 (CI))
>300.00 µg/mL: Minimum Bactericidal Concentration (MBC) (S. aureus Sau89 (CI)) | Minimum Inhibitory Concentration (MIC) (S. aureus Sau89 (CI)) | Minimum Bactericidal Concentration (MBC) (S. aureus Sau39 (CI)) | Minimum Bactericidal Concentration (MBC) (S. aureus Sau221 (CI)) | Minimum Inhibitory Concentration (MIC) (S. aureus Sau221 (CI)) | Minimum Bactericidal Concentration (MBC) (S. aureus ATCC 43300; S. aureus 43300, plated on TSA, 24 h 37 °C, triplicate) | Minimum Bactericidal Concentration (MBC) (S. aureus ATCC 49230; S. aureus 49230, plated on TSA, 24 h 37 °C, triplicate) | Minimum Bactericidal Concentration (MBC) ([2]; S. epidermidis 35984, plated on TSA, 24 h 37 °C, triplicate) | Minimum Bactericidal Concentration (MBC) (S. aureus ATCC 25923; S. aureus 25923, plated on TSA, 24 h 37 °C, triplicate) | Minimum Bactericidal Concentration (MBC) ([1]; S. epidermidis GOI1153754-03-14 clinical isolate, triplicate)
37.50 µg/mL: Minimum Inhibitory Concentration (MIC) (E. coli Eco75 (CI)) | Minimum Inhibitory Concentration (MIC) (P. aeruginosa Pae61 (CI)) | Minimum Inhibitory Concentration (MIC) (P. aeruginosa Pae82 (CI)) | Minimum Inhibitory Concentration (MIC) (E. coli Eco53 (CI)) | Minimum Inhibitory Concentration (MIC) (E. coli Eco61 (CI)) | Minimum Inhibitory Concentration (MIC) (S. aureus ATCC 25923; S. aureus 25923, ISO20776-1/CLSI, triplicate) | Minimum Inhibitory Concentration (MIC) (P. aeruginosa ATCC 27853; P. aeruginosa 27853, ISO20776-1/CLSI, triplicate)
